Values after ≈ are worked out from the molar mass of the structure shown.
Experiments:
Assay type in all cases: functional
Escherichia coli [1] = assay: Tested in vitro for inhibitory activity against gram negative bacteria Escherichia coli ATCC 8739 cell lines
[2] = system: Staphylococcus epidermidis; assay: Tested in vitro for inhibitory activity against gram positive bacteria Staphylococcus epidermidis CPHL A2 strain
Enterococcus faecalis = assay: Tested in vitro for inhibitory activity against gram positive bacteria Streptococcus faecalis LEP Br strain
Enterobacter cloacae = assay: Tested in vitro for inhibitory activity against gram negative bacteria Enterobacter cloacae OMNFI 174 strain.
Providencia stuartii [3] = assay: Tested in vitro for inhibitory activity against gram negative bacteria Providencia stuartii CNUR 5 strain
Shigella = assay: Tested in vitro for inhibitory activity against gram negative bacteria Shigella enteritidis
Staphylococcus aureus [4] = assay: Tested in vitro for inhibitory activity against gram positive bacteria Staphylococcus aureus MPR 5 strain
Staphylococcus aureus [5] = assay: Tested in vitro for inhibitory activity against gram positive bacteria Staphylococcus aureus ATCC 6538 strain
Klebsiella pneumoniae = assay: Tested in vitro for inhibitory activity against gram negative bacteria Klebsiella pneumoniae ATCC 10031 strain
[6] = system: Staphylococcus epidermidis; assay: Tested in vitro for inhibitory activity against gram positive bacteria Staphylococcus epidermidis HCF berset C strain
Escherichia coli [7] = assay: Tested in vitro for inhibitory activity against gram negative bacteria Escherichia coli ISF 432 strain.
[8] = system: Acinetobacter calcoaceticus; assay: Tested in vitro for inhibitory activity against gram negative bacteria Acinetobacter calcoaceticus OSMPV 113 strain.
Pseudomonas aeruginosa = assay: Tested in vitro for inhibitory activity against gram negative bacteria Pseudomonas aeruginosa ATCC 9027 strain
Providencia stuartii [9] = assay: Tested in vitro for inhibitory activity against gram negative bacteria Providencia stuartii CNUR 5 cell lines
Escherichia coli [10] = assay: Tested in vitro for inhibitory activity against gram negative bacteria Escherichia coli ATCC 8739 strain
Escherichia coli [11] = assay: Tested in vitro for inhibitory activity against gram negative bacteria Escherichia coli ISF 432 strain at 25 ug/mL
Escherichia coli [12] = assay: Tested in vitro for inhibitory activity against gram negative bacteria Escherichia coli ATCC 8739 strain at 25 ug/mL
Escherichia coli [13] = assay: Tested in vitro for inhibitory activity against gram negative bacteria Escherichia coli ATCC 8739 cell lines at 5.8 ug/mL
Escherichia coli [14] = assay: Tested in vitro for inhibitory activity against gram negative bacteria Escherichia coli ISF 432 cell lines at 5.8 ug/mL
Escherichia coli [15] = assay: Tested in vitro for inhibitory activity against gram negative bacteria Escherichia coli ISF 432 cell lines at 10 ug/mL
Escherichia coli [16] = assay: Tested in vitro for inhibitory activity against gram negative bacteria Escherichia coli ATCC 8739 cell lines at 10 ug/mL
[17] = Minimum concentration at which cleaved linear DNA is observed

| SMILES | MIC (Escherichia coli [1]) [µg/mL] | MIC [2] [µg/mL] | MIC (Enterococcus faecalis) [µg/mL] | MIC (Enterobacter cloacae) [µg/mL] | MIC (Providencia stuartii [3]) [µg/mL] | MIC (Shigella) [µg/mL] | MIC (Staphylococcus aureus [4]) [µg/mL] | MIC (Staphylococcus aureus [5]) [µg/mL] | MIC (Klebsiella pneumoniae) [µg/mL] | MIC [6] [µg/mL] | MIC (Escherichia coli [7]) [µg/mL] | MIC [8] [µg/mL] | MIC (Pseudomonas aeruginosa) [µg/mL] | further results |
| --- | --- | --- | --- | --- | --- | --- | --- | --- | --- | --- | --- | --- | --- | --- |
| Nc1cc2c(=O)c(C(=O)O)cn(C3CC3)c2cc1NC1CC1 | 2 (≈ 6.68 µM) | 128 (≈ 428 µM) | 128 (≈ 428 µM) | 64 (≈ 214 µM) | 128 (≈ 428 µM) | 64 (≈ 214 µM) | 128 (≈ 428 µM) | 128 (≈ 428 µM) | 2 (≈ 6.68 µM) | 128 (≈ 428 µM) | 4 (≈ 13.4 µM) | 128 (≈ 428 µM) | 128 (≈ 428 µM) |  |
| Nc1cc2c(=O)c(C(=O)O)cn(C3CC3)c2cc1Cl |  | 128 (≈ 459 µM) | 128 (≈ 459 µM) | 16 (≈ 57.4 µM) |  | 16 (≈ 57.4 µM) | 128 (≈ 459 µM) | 128 (≈ 459 µM) | 2 (≈ 7.18 µM) | 64 (≈ 230 µM) | 2 (≈ 7.18 µM) | 128 (≈ 459 µM) | 128 (≈ 459 µM) | MIC (Providencia stuartii [9]): 64 µg/mL (≈ 230 µM); MIC (Escherichia coli [10]): 2 µg/mL (≈ 7.18 µM) |
| CN1CCN(c2cc3c(cc2N)c(=O)c(C(=O)O)cn3C2CC2)CC1 |  | 2 (≈ 5.84 µM) | 32 (≈ 93.5 µM) | 0.25 (≈ 0.73 µM) | 8 (≈ 23.4 µM) | 0.25 (≈ 0.73 µM) | 2 (≈ 5.84 µM) | 2 (≈ 5.84 µM) | 0.03 (≈ 0.0876 µM) | 4 (≈ 11.7 µM) |  | 4 (≈ 11.7 µM) | 4 (≈ 11.7 µM) | MIC (Escherichia coli [11]): 0.03 µg/mL (≈ 0.0876 µM); MIC (Escherichia coli [12]): 0.25 µg/mL (≈ 0.73 µM) |
| CN1CCN(c2cc3c(c(N)c2N)c(=O)c(C(=O)O)cn3C2CC2)CC1 | 16 (≈ 44.8 µM) | 128 (≈ 358 µM) | 128 (≈ 358 µM) | 128 (≈ 358 µM) | 128 (≈ 358 µM) | 128 (≈ 358 µM) | 128 (≈ 358 µM) | 128 (≈ 358 µM) | 32 (≈ 89.5 µM) | 128 (≈ 358 µM) | 16 (≈ 44.8 µM) | 128 (≈ 358 µM) | 128 (≈ 358 µM) |  |
| Nc1cc2c(=O)c(C(=O)O)cn(C3CC3)c2c(F)c1N1CCSCC1 |  | 0.5 (≈ 1.38 µM) | 4 (≈ 11 µM) | 1 (≈ 2.75 µM) | 0.5 (≈ 1.38 µM) | 4 (≈ 11 µM) | 0.25 (≈ 0.688 µM) | 0.5 (≈ 1.38 µM) | 0.03 (≈ 0.0826 µM) | 1 (≈ 2.75 µM) |  | 1 (≈ 2.75 µM) | 4 (≈ 11 µM) | MIC (Escherichia coli [13]): 0.12 µg/mL (≈ 0.33 µM); MIC (Escherichia coli [14]): 0.06 µg/mL (≈ 0.165 µM) |
| CN1CCN(c2c(N)c(N)c3c(=O)c(C(=O)O)cn(C4CC4)c3c2F)CC1 | 0.03 (≈ 0.0799 µM) | 4 (≈ 10.7 µM) | 4 (≈ 10.7 µM) | 0.12 (≈ 0.32 µM) | 2 (≈ 5.33 µM) | 0.25 (≈ 0.666 µM) | 2 (≈ 5.33 µM) | 2 (≈ 5.33 µM) | 0.03 (≈ 0.0799 µM) | 4 (≈ 10.7 µM) | 0.03 (≈ 0.0799 µM) | 2 (≈ 5.33 µM) | 4 (≈ 10.7 µM) |  |
| Nc1cc2c(=O)c(C(=O)O)cn(C3CC3)c2cc1N1CCSCC1 |  | 1 (≈ 2.89 µM) | 8 (≈ 23.2 µM) | 0.5 (≈ 1.45 µM) | 1 (≈ 2.89 µM) | 0.5 (≈ 1.45 µM) | 0.5 (≈ 1.45 µM) | 0.5 (≈ 1.45 µM) | 0.03 (≈ 0.0868 µM) | 2 (≈ 5.79 µM) |  | 1 (≈ 2.89 µM) | 2 (≈ 5.79 µM) | MIC (Escherichia coli [15]): 0.03 µg/mL (≈ 0.0868 µM); MIC (Escherichia coli [16]): 0.03 µg/mL (≈ 0.0868 µM) |
| CC(C)(C)n1cc(C(=O)O)c(=O)c2cc(N)c(N3CCSCC3)cc21 |  | 0.5 (≈ 1.38 µM) | 8 (≈ 22.1 µM) | 2 (≈ 5.53 µM) | 4 (≈ 11.1 µM) | 2 (≈ 5.53 µM) | 0.25 (≈ 0.692 µM) | 0.25 (≈ 0.692 µM) | 0.03 (≈ 0.083 µM) | 0.5 (≈ 1.38 µM) |  | 0.5 (≈ 1.38 µM) | 4 (≈ 11.1 µM) | MIC (Escherichia coli [13]): 0.06 µg/mL (≈ 0.166 µM); Concentration [17]: 5.8 µg/mL; MIC (Escherichia coli [14]): 0.03 µg/mL (≈ 0.083 µM) |
